Consider four compounds from article PMC12006171, “Marsupial cathelicidins: characterization, antimicrobial activity and evolution in this unique mammalian lineage” (Frontiers in Immunology, 2025).

≈ marks a conversion by molar mass, not a printed value. Read-outs that look alike come from different tables or passages of the source. Where a SMILES comes first, the peptide text is derived from it.

Type in all cases: cell-based
Assay [1] relates to Staphylococcus aureus clinical isolate - animal. Description: microbe, parasite or virus in culture. The protocol:
(§1) Antimicrobial testing of 78 cathelicidin MPs was performed in two phases as outlined in Figure 1 . In phase I, 40 peptides (27 extant and 13 ancestral) were selected for testing based on rank (outlined above) and similarity to published marsupial cathelicidins with known antimicrobial activity ([33], [41]–[43]). These peptides were tested against nine bacteria (Staphylococcus aureus ATCC 29213 and clinical isolate, Escherichia coli ATCC 25922 and clinical isolate, Pseudomonas aeruginosa ATCC 27853 and clinical isolate, Streptococcus agalactiae ATCC 12386 and clinical isolate, Streptococcus pneumoniae ATCC 49619) and three fungi (Candida krusei ATCC 6258, Candida parapsilosis ATCC 22019, and Candida albicans clinical isolate). Details regarding these strains are available in Supplementary Table 4 . The antimicrobial activity of cathelicidins was determined as the minimum inhibitory concentration (MIC), which was the lowest concentration of cathelicidin that prevented visible bacterial or fungal growth, relative to the negative control. […] Minimum bactericidal concentration (MBC) and/or minimum fungicidal concentration (MFC) was conducted to determine microbicidal versus static action. Activity against S. aureus ATCC, E. coli ATCC, and Pseudomonas aeruginosa ATCC 27853 was examined in the presence of divalent cations to determine the impact of inhibitors.
(§2) In phase II, the remaining 38 peptides (37 extant and one ancestral) were tested against six bacteria (S. aureus ATCC and clinical isolate, E. coli ATCC and clinical isolate, and P. aeruginosa ATCC and clinical isolate). […] No further testing on phase II peptides was performed. Detailed methods for all assays are provided in subsequent sections.
(§3) Antimicrobial activity was determined using a broth microdilution susceptibility assay in 96 well polypropylene plates according to Clinical Laboratory Standards Institute guidelines M07-A and M26A as described previously ([33], [42], [43]). The bacterial and fungal isolates from humans and animals used in this study are outlined in Supplementary Table 4 . Only yeasts were included in the panel of fungi as they have been used in the susceptibility testing of eutherian ([3], [81]–[83]) and other marsupial cathelicidins previously ([33], [42], [43]). Cathelicidin mature peptides were solubilized in DMSO and serially diluted in duplicate from 128-0.25μg/mL in a final volume of 100µL. For bacteria, cathelicidins were diluted in Mueller Hinton Broth (MHB) with or without 10% lysed horse blood, and with (MH II B) or without (MHB) calcium and magnesium cations. For fungi, cathelicidins were diluted in Roswell Park Memorial Institute medium (RPMI)-1640 MOPS. Ampicillin or tetracycline were included as a positive control for Gram-positive and -negative bacteria respectively, while amphotericin B was used for fungi. A media-only negative control and growth control (no cathelicidin) were also included on each plate. Bacteria were sub-cultured on Muller Hinton agar (MHA) or sheep blood agar (BA), and fungi on Sabouraud dextrose agar (SAB), 20–24 hours prior to the test. Colonies were suspended in saline, the concentration adjusted to a 0.5 McFarland standard, and then diluted in media to a concentration of 1.0 x 10^6 cells/mL. Then, 100μL was added to each well of the cathelicidin dilution plate, giving a final inoculum density of 5 x 10^5 CFU/mL and cathelicidin concentration of 64-0.125μg/mL. Colony counts were performed on MHA/BA/SAB to confirm inoculum density. All plates were incubated at 35°C for 20–24 hours, depending on the strain.
(§4) Colonies were counted and compared to the colony count of the starting inoculum.

For assay [2], the system named is Escherichia coli clinical isolate - animal. Description: microbe, parasite or virus in culture. The procedure:
as §1, §2, §3, §4

The test system of assay [3] is Staphylococcus aureus ATCC 29213. Description: microbe, parasite or virus in culture. The protocol:
as §1, §2, §3, §4

Assay [4] concerns Escherichia coli ATCC 25922. Description: microbe, parasite or virus in culture. The protocol: as §1, §2, §3, §4
The subject of assay [5] is Streptococcus pneumoniae ATCC 49619. Description: microbe, parasite or virus in culture. As to conditions: read-out: MIC S. pneumoniae ATCC. The procedure: as §1, §3, §4
Assay [6] concerns Streptococcus agalactiae Clinical isolate - animal. Description: microbe, parasite or virus in culture. The settings on record: read-out: MIC S. agalactiae. The protocol: as §1, §3, §4
Assay [7] concerns Streptococcus agalactiae ATCC 12386. Description: microbe, parasite or virus in culture. As to conditions: read-out: MIC S. agalactiae ATCC. The protocol:
as §1, §3, §4

The subject of assay [8] is Pseudomonas aeruginosa ATCC 27853. Description: microbe, parasite or virus in culture. The settings on record: read-out: MIC P. aeruginosa ATCC. The protocol:
as §1, §2, §3, §4

The subject of assay [9] is Pseudomonas aeruginosa clinical isolate - animal. Description: microbe, parasite or virus in culture. The settings on record: read-out: MIC P. aeruginosa. The procedure: as §1, §2, §3, §4
In assay [10] the test system is six bacteria (S. aureus, E. coli, P. aeruginosa; ATCC and clinical isolate). The settings on record: broth microdilution screening, phase I or II; Y/N summary over the bacteria tested; synthesized mature peptide. The protocol: as §1, §2, §3, §4
[11] abbreviates: clinical isolate, value in brackets, µM equivalent of Table 3.
[12] abbreviates: clinical isolate, µM equivalent of Table 3.
Setting [13] is: value in brackets, µM equivalent of Table 3.

As for `CC1(C)S[C@@H]2[C@H](NC(=O)[C@H](N)c3ccccc3)C(=O)N2[C@H]1C(=O)O` [Ampicillin, reference compound], the MIC is 0.25 µg/mL in assay [1] (Staphylococcus aureus, clinical isolate, MHB without cations, 5 x 10^5 CFU/mL, 35°C 20–24 hours, duplicate, read-out: MIC S. aureus); 0.25 µg/mL in assay [1] (Staphylococcus aureus, clinical isolate, superscript value, cation-adjusted Mueller Hinton broth, read-out: MIC in the presence of cations S. aureus); 0.7 µM in assay [1] (Staphylococcus aureus, clinical isolate, superscript value, cation-adjusted Mueller Hinton broth, µM equivalent, read-out: MIC in the presence of cations S. aureus); 0.7 µM in [1] (Staphylococcus aureus, clinical isolate, µM equivalent of Table 3, read-out: MIC S. aureus); > 64 µg/mL in assay [2] (Escherichia coli, clinical isolate, MHB without cations, 5 x 10^5 CFU/mL, 35°C 20–24 hours, duplicate); > 183 µM in assay [2] (Escherichia coli, clinical isolate, µM equivalent of Table 3). Moreover, the MIC turned out to be 1 µg/mL in [3] (Staphylococcus aureus, ATCC29213, MHB without cations, 5 x 10^5 CFU/mL, 35°C 20–24 hours, duplicate, 64-0.125μg/mL, read-out: MIC S. aureus ATCC); 2 µg/mL in assay [3] (Staphylococcus aureus, ATCC29213, superscript value, cation-adjusted Mueller Hinton broth (calcium and magnesium), read-out: MIC in the presence of cations S. aureus ATCC); 5.7 µM in assay [3] (Staphylococcus aureus, ATCC29213, superscript value, cation-adjusted Mueller Hinton broth, µM equivalent of Table 3, read-out: MIC in the presence of cations S. aureus ATCC); 2.8 µM in [3] (Staphylococcus aureus, ATCC29213, µM equivalent of Table 3, read-out: MIC S. aureus ATCC); 4 µg/mL in assay [4] (Escherichia coli, ATCC25922, MHB without cations, 5 x 10^5 CFU/mL, 35°C 20–24 hours, duplicate, read-out: MIC E. coli ATCC); 8 µg/mL in [4] (Escherichia coli, ATCC25922, superscript value, cation-adjusted Mueller Hinton broth, read-out: MIC in the presence of cations E. coli ATCC). Besides, the MIC in [4] (Escherichia coli, ATCC25922, superscript value, cation-adjusted Mueller Hinton broth, µM equivalent, read-out: MIC in the presence of cations E. coli ATCC) is 22.8 µM; in assay [4] (Escherichia coli, ATCC25922, µM equivalent of Table 3, read-out: MIC E. coli ATCC) it was 11.4 µM; in [5] (Streptococcus pneumoniae, ATCC49619, phase I peptides only, 5 x 10^5 CFU/mL, 35°C 20–24 hours, duplicate), > 64 µg/mL; in assay [5] (Streptococcus pneumoniae, ATCC49619, µM equivalent of Table 3) it was > 183 µM; in [6] (Streptococcus agalactiae, clinical isolate, phase I peptides only, 5 x 10^5 CFU/mL, 35°C 20–24 hours, duplicate), 0.25 µg/mL; in [6] (Streptococcus agalactiae, clinical isolate, µM equivalent of Table 3), 0.7 µM. Besides, the MIC worked out at 0.25 µg/mL in assay [7] (Streptococcus agalactiae, ATCC12386, phase I peptides only, 5 x 10^5 CFU/mL, 35°C 20–24 hours, duplicate) and 0.7 µM in assay [7] (Streptococcus agalactiae, ATCC12386, µM equivalent of Table 3).
`CC[C@H](C)[C@H](NC(=O)[C@H](CCCCN)NC(=O)[C@H](CC(C)C)NC(=O)CNC(=O)[C@H](CC(N)=O)NC(=O)[C@@H](NC(=O)[C@H](CCCNC(=N)N)NC(=O)[C@H](CCCNC(=N)N)NC(=O)[C@H](CCCNC(=N)N)NC(=O)[C@@H](NC(=O)[C@H](CO)NC(=O)[C@H](CC(N)=O)NC(=O)[C@H](CCCNC(=N)N)NC(=O)[C@H](CC(C)C)NC(=O)[C@H](CCCCN)NC(=O)[C@H](CCCCN)NC(=O)[C@H](C)NC(=O)[C@H](CCCCN)NC(=O)[C@H](CCC(=O)O)NC(=O)[C@H](CCCCN)NC(=O)[C@@H](NC(=O)[C@@H](NC(=O)[C@H](CC(=O)O)NC(=O)[C@H](Cc1c[nH]c2ccccc12)NC(=O)[C@H](CC(C)C)NC(=O)CNC(=O)[C@H](CCCNC(=N)N)NC(=O)[C@@H](N)CCCCN)[C@@H](C)O)C(C)C)[C@@H](C)CC)C(C)C)C(=O)NCC(=O)N[C@@H](C)C(=O)N[C@@H](C)C(=O)N[C@@H](CC(=O)O)C(=O)N[C@@H](CCC(N)=O)C(=O)N[C@H](C(=O)N1CCC[C@H]1C(=O)NCC(=O)N[C@@H](Cc1c[nH]cn1)C(=O)N[C@@H](CO)C(=O)N[C@@H](CC(C)C)C(=O)O)C(C)C` [LahiCath4] (H-KRGLWDTVKEKAKKLRNSIRRRVNGLKIGAADQVPGHSL-OH): the MIC is on record as >14.5 µM in [8] (ATCC 27853); >14.5 µM in assay [1] (clinical isolate - animal, read-out: MIC S. aureus); 3.6 µM in [2] (clinical isolate - animal); >14.5 µM in assay [9] (clinical isolate - animal); >14.5 µM in assay [3] (ATCC 29213, read-out: MIC S. aureus ATCC); 7.2 µM in assay [4] (ATCC 25922, read-out: MIC E. coli ATCC). Further, the MIC in [4] (ATCC 25922, read-out: MIC in the presence of cations E. coli ATCC) is given as 14.5 µM; in [5] (ATCC 49619), >14.5 µM; in assay [6] (clinical isolate - animal), >14.5 µM; in [7] (ATCC 12386), >14.5 µM. Also, the “MBC E. coli” value in assay [2] (clinical isolate - animal) was 14.5 µM (≈ 63.8 µg/mL). Besides, the “MIC in the presence of cations E. coli” value in assay [2] (clinical isolate - animal) is recorded as 14.5 µM. The “MBC E. coli ATCC” value in assay [4] (ATCC 25922) is listed as 14.5 µM (≈ 63.8 µg/mL).
Consider “KKTRTKPKNSIRRRIKGFGIGTIILVPL [MagiCath6, predicted eastern grey kangaroo cathelicidin mature peptide]”, for which the MIC in assay [8] (µM equivalent of Table 3) and in assay [9] (setting [12]) was >17.6 µM each time. In addition, the MBC S. aureus in assay [1] (setting [11]) came out at 17.6 µM. In addition, the MIC S. aureus in assay [1] (setting [12]) stood at 17.6 µM. The MBC E. coli in assay [2] (setting [11]) was found to be 17.6 µM. Further, the MIC E. coli in assay [2] (setting [12]) turned out to be 17.6 µM. In addition, the MBC S. aureus ATCC in [3] (setting [13]) is 17.6 µM. Further, the MIC S. aureus ATCC in assay [3] (µM equivalent of Table 3) was 17.6 µM. The MBC E. coli ATCC in [4] (setting [13]) was 8.8 µM. Further, the MIC E. coli ATCC in assay [4] (µM equivalent of Table 3) was 8.8 µM. Besides, the “Antibacterial (MIC <64ug/mL)” value in assay [10] is “Y (Antibacterial (MIC <64ug/mL))”.
Turning to “RTLLRRVGEKVKTRFIAALEKLIDTFLP [MagiCath3, predicted eastern grey kangaroo cathelicidin mature peptide]”, the MIC is reported as >14.3 µM in assay [8] (µM equivalent of Table 3); >14.3 µM in assay [1] (clinical isolate, µM equivalent of Table 3, read-out: MIC S. aureus); >14.3 µM in assay [2] (setting [12]); >14.3 µM in assay [9] (setting [12]); >14.3 µM in assay [3] (µM equivalent of Table 3, read-out: MIC S. aureus ATCC). In assay [4] (setting [13]), the MBC E. coli ATCC was > 14.3 µM. For the same compound, the MIC E. coli ATCC in assay [4] (µM equivalent of Table 3) worked out at 14.3 µM. For the same compound, in assay [10], the “Antibacterial (MIC <64ug/mL)” value is “Y (Antibacterial (MIC <64ug/mL))”.
